Patent US9169254B2, “Spiroimidazolone derivative” (Chugai Seiyaku Kabushiki Kaisha, priority 2009, dated 2015)

target: T1, human PTH1 receptor (Homo sapiens, UniProt Q03431); assay: In vitro cAMP signal activity in HKRK-B7 cells (LLC-PK1 cells overexpressing the human PTH1 receptor); format: cell-based; details: HKRK-B7 cells; compound at 1×10^−3 M; cAMP produced as percentage of that produced by hPTH(1-34) at 100 nM
T1 sequence (Q03431 27-593): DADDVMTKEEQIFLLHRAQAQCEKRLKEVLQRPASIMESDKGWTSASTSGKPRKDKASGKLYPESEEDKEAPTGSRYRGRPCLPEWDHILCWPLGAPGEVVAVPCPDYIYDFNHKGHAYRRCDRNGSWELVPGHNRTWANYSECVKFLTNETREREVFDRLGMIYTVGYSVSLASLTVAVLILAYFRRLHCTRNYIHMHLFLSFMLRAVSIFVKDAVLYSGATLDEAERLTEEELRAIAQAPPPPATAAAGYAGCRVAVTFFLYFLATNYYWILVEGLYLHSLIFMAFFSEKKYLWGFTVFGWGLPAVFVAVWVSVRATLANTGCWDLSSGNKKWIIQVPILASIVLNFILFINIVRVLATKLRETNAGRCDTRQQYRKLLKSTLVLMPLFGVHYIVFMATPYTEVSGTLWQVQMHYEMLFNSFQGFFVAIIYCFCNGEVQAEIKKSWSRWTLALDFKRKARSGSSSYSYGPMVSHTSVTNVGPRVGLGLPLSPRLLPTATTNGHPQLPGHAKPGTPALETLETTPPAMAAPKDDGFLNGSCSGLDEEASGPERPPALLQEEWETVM

First: Cc1cc(C(=O)N(C)C)ccc1CCS(=O)(=O)N1CCC2(CC1)N=C(c1cc(F)cc(C(F)(F)F)c1)NC2=O [Compound 115, 4-{2-[2-(3-fluoro-5-trifluoromethyl-phenyl)-4-oxo-1,3,8-triaza-spiro[4.5]dec-1-ene-8-sulfonyl]-ethyl}-3,N,N-trimethyl-benzamide]
Second: Cc1cc(C(=O)N(C)C)ccc1CCS(=O)(=O)N1CCC2(CC1)N=C(c1cc(Cl)cc(C(F)(F)F)c1)NC2=O [Compound 127, 4-{2-[2-(3-chloro-5-trifluoromethyl-phenyl)-4-oxo-1,3,8-triaza-spiro[4.5]dec-1-ene-8-sulfonyl]-ethyl}-3,N,N-trimethyl-benzamide]
The “cAMP production activity (%)” value of the first is higher: 81% for the first, 72% for the second.

First: Cc1cc(C(=O)N(C)C)ccc1CCS(=O)(=O)N1CCC2(CC1)N=C(c1cccc(C(F)(F)F)c1F)NC2=O [Compound 116, 4-{2-[2-(2-fluoro-3-trifluoromethyl-phenyl)-4-oxo-1,3,8-triaza-spiro[4.5]dec-1-ene-8-sulfonyl]-ethyl}-3,N,N-trimethyl-benzamide]
Second: Cc1cc(C(=O)N(C)C)ccc1CCS(=O)(=O)N1CCC2(CC1)N=C(c1ccc(C(F)(F)F)cc1F)NC2=O [Compound 139, 4-{2-[2-(2-fluoro-4-trifluoromethyl-phenyl)-4-oxo-1,3,8-triaza-spiro[4.5]dec-1-ene-8-sulfonyl]-ethyl}-3,N,N-trimethyl-benzamide]
The “cAMP production activity (%)” value of the first is higher: 94% for the first, 64% for the second.

Going from Cc1cc(C2=NC3(CCN(S(=O)(=O)CCc4ccc(C(=O)N(C)C)cc4C)CC3)C(=O)N2)ccc1F [Compound 117, 4-{2-[2-(4-fluoro-3-methyl-phenyl)-4-oxo-1,3,8-triaza-spiro[4.5]dec-1-ene-8-sulfonyl]-ethyl}-3,N,N-trimethyl-benzamide] to Cc1cc(C(=O)N(C)C)ccc1CCS(=O)(=O)N1CCC2(CC1)N=C(c1ccc(Cl)cc1C)NC2=O [Compound 128, 4-{2-[2-(4-chloro-2-methyl-phenyl)-4-oxo-1,3,8-triaza-spiro[4.5]dec-1-ene-8-sulfonyl]-ethyl}-3,N,N-trimethyl-benzamide], the “cAMP production activity (%)” value falls from 61% to 57%.

Going from Cc1cc(C(=O)N(C)C)ccc1CCS(=O)(=O)N1CCC2(CC1)N=C(c1ccc(OC(F)F)cc1)NC2=O [Compound 118, 4-{2-[2-(4-difluoromethoxy-phenyl)-4-oxo-1,3,8-triaza-spiro[4.5]dec-1-ene-8-sulfonyl]-ethyl}-3,N,N-trimethyl-benzamide] to Cc1cc(C(=O)N(C)C)ccc1CCS(=O)(=O)N1CCC2(CC1)N=C(c1cccc(OC(F)(F)C(F)F)c1)NC2=O [Compound 140, 3,N,N-trimethyl-4-(2-{4-oxo-2-[3-(1,1,2,2-tetrafluoro-ethoxy)-phenyl]-1,3,8-triaza-spiro[4.5]dec-1-ene-8-sulfonyl}-ethyl)-benzamide], the “cAMP production activity (%)” value rises from 73% to 77%.

Compared with COc1cc(C2=NC3(CCN(S(=O)(=O)CCc4ccc(C(=O)N(C)C)cc4C)CC3)C(=O)N2)ccn1 [Compound 119, 4-{2-[2-(2-methoxy-pyridin-4-yl)-4-oxo-1,3,8-triaza-spiro[4.5]dec-1-ene-8-sulfonyl]-ethyl}-3,N,N-trimethyl-benzamide], Cc1cc(C(=O)N(C)C)ccc1CCS(=O)(=O)N1CCC2(CC1)N=C(c1nccn1C)NC2=O [Compound 122, 3,N,N-trimethyl-4-{2-[2-(1-methyl-1H-imidazol-2-yl)-4-oxo-1,3,8-triaza-spiro[4.5]dec-1-ene-8-sulfonyl]-ethyl}-benzamide] is lower in “cAMP production activity (%)” value: 60% for the first, 3.0% for the second.

First: Cc1cnc(C2=NC3(CCN(S(=O)(=O)CCc4ccc(C(=O)N(C)C)cc4C)CC3)C(=O)N2)cn1 [Compound 120, 3,N,N-trimethyl-4-{2-[2-(5-methyl-pyrazin-2-yl)-4-oxo-1,3,8-triaza-spiro[4.5]dec-1-ene-8-sulfonyl]-ethyl}-benzamide]
Second: Cc1cc(C(=O)N(C)C)ccc1CCS(=O)(=O)N1CCC2(CC1)N=C(c1cscn1)NC2=O [Compound 121, 3,N,N-trimethyl-4-[2-(4-oxo-2-thiazol-4-yl-1,3,8-triaza-spiro[4.5]dec-1-ene-8-sulfonyl)-ethyl]-benzamide]
The “cAMP production activity (%)” value of the first is lower: 3.1% for the first, 5.8% for the second.

Going from Cc1cc(C(=O)N(C)C)ccc1CCS(=O)(=O)N1CCC2(CC1)N=C(C1CCOCC1)NC2=O [Compound 123, 3,N,N-trimethyl-4-{2-[4-oxo-2-(tetrahydro-pyran-4-yl)-1,3,8-triaza-spiro[4.5]dec-1-ene-8-sulfonyl]-ethyl}-benzamide] to C/C=C/C1=NC2(CCN(S(=O)(=O)CCc3ccc(C(=O)N(C)C)cc3C)CC2)C(=O)N1 [Compound 141, 3,N,N-trimethyl-4-{2-[4-oxo-2-((E)-propenyl)-1,3,8-triaza-spiro[4.5]dec-1-ene-8-sulfonyl]-ethyl}-benzamide], the “cAMP production activity (%)” value rises from 23% to 32%.

Going from Cc1cc(C(=O)N(C)C)ccc1CCS(=O)(=O)N1CCC2(CC1)N=C(COc1ccc(Cl)cc1)NC2=O [Compound 124, 4-{2-[2-(4-chloro-phenoxymethyl)-4-oxo-1,3,8-triaza-spiro[4.5]dec-1-ene-8-sulfonyl]-ethyl}-3,N,N-trimethyl-benzamide] to Cc1cc(C(=O)N(C)C)ccc1CCS(=O)(=O)N1CCC2(CC1)N=C(COc1ccc(F)cc1)NC2=O [Compound 125, 4-{2-[2-(4-fluoro-phenoxymethyl)-4-oxo-1,3,8-triaza-spiro[4.5]dec-1-ene-8-sulfonyl]-ethyl}-3,N,N-trimethyl-benzamide], the “cAMP production activity (%)” value falls from 64% to 62%.

Compared with Cc1cc(C(=O)N(C)C)ccc1CCS(=O)(=O)N1CCC2(CC1)N=C(c1ccc(Cl)c(C(F)(F)F)c1)NC2=O [Compound 126, 4-{2-[2-(4-chloro-3-trifluoromethyl-phenyl)-4-oxo-1,3,8-triaza-spiro[4.5]dec-1-ene-8-sulfonyl]-ethyl}-3,N,N-trimethyl-benzamide], Cc1cc(C(=O)N(C)C)ccc1CCS(=O)(=O)N1CCC2(CC1)N=C(c1ccc(Cl)cc1F)NC2=O [Compound 129, 4-{2-[2-(4-chloro-2-fluoro-phenyl)-4-oxo-1,3,8-triaza-spiro[4.5]dec-1-ene-8-sulfonyl]-ethyl}-3,N,N-trimethyl-benzamide] is lower in “cAMP production activity (%)” value: 79% for the first, 3.7% for the second.

Going from Cc1cc(C(=O)N(C)C)ccc1CCS(=O)(=O)N1CCC2(CC1)N=C(c1cccc(COC(C)C)c1)NC2=O [Compound 130, 4-{2-[2-(3-isopropoxymethyl-phenyl)-4-oxo-1,3,8-triaza-spiro[4.5]dec-1-ene-8-sulfonyl]-ethyl}-3,N,N-trimethyl-benzamide] to Cc1cc(C(=O)N(C)C)ccc1CCS(=O)(=O)N1CCC2(CC1)N=C(c1cccc(Cl)c1C)NC2=O [Compound 133, 4-{2-[2-(3-chloro-2-methyl-phenyl)-4-oxo-1,3,8-triaza-spiro[4.5]dec-1-ene-8-sulfonyl]-ethyl}-3,N,N-trimethyl-benzamide], the “cAMP production activity (%)” value rises from 65% to 82%.

Going from Cc1cc(C(=O)N(C)C)ccc1CCS(=O)(=O)N1CCC2(CC1)N=C(COc1ccc(Cl)cc1Cl)NC2=O [Compound 131, 4-{2-[2-(2,4-dichloro-phenoxymethyl)-4-oxo-1,3,8-triaza-spiro[4.5]dec-1-ene-8-sulfonyl]-ethyl}-3,N,N-trimethyl-benzamide] to Cc1cc(C(=O)N(C)C)ccc1CCS(=O)(=O)N1CCC2(CC1)N=C(Cc1ccc(Cl)cc1Cl)NC2=O [Compound 134, 4-{2-[2-(2,4-dichloro-benzyl)-4-oxo-1,3,8-triaza-spiro[4.5]dec-1-ene-8-sulfonyl]-ethyl}-3,N,N-trimethyl-benzamide], the “cAMP production activity (%)” value rises from 72% to 77%.

First: Cc1cc(C(=O)N(C)C)ccc1CCS(=O)(=O)N1CCC2(CC1)N=C(Cc1cccc(C(F)(F)F)c1)NC2=O [Compound 135, 3,N,N-trimethyl-4-{2-[4-oxo-2-(3-trifluoromethyl-benzyl)-1,3,8-triaza-spiro[4.5]dec-1-ene-8-sulfonyl]-ethyl}-benzamide]
Second: Cc1cc(C(=O)N(C)C)ccc1CCS(=O)(=O)N1CCC2(CC1)N=C(C1(C(F)(F)F)CC1)NC2=O [Compound 136, 3,N,N-trimethyl-4-{2-[4-oxo-2-(1-trifluoromethyl-cyclopropyl)-1,3,8-triaza-spiro[4.5]dec-1-ene-8-sulfonyl]-ethyl}-benzamide]
The “cAMP production activity (%)” value of the first is lower: 67% for the first, 72% for the second.

First: Cc1cc(C(=O)N(C)C)ccc1CCS(=O)(=O)N1CCC2(CC1)N=C(C1(C(F)(F)F)CCC1)NC2=O [Compound 137, 3,N,N-trimethyl-4-{2-[4-oxo-2-(1-trifluoromethyl-cyclobutyl)-1,3,8-triaza-spiro[4.5]dec-1-ene-8-sulfonyl]-ethyl}-benzamide]
Second: Cc1cc(C(=O)N(C)C)ccc1CCS(=O)(=O)N1CCC2(CC1)N=C(C1(C(F)(F)F)CCCC1)NC2=O [Compound 138, 3,N,N-trimethyl-4-{2-[4-oxo-2-(1-trifluoromethyl-cyclopentyl)-1,3,8-triaza-spiro[4.5]dec-1-ene-8-sulfonyl]-ethyl}-benzamide]
The “cAMP production activity (%)” value of the first is higher: 50% for the first, 49% for the second.

With Cc1cc(C(=O)N(C)C)ccc1CCS(=O)(=O)N1CCC2(CC1)N=C(/C=C/c1ccccc1)NC2=O [Compound 142, 3,N,N-trimethyl-4-{2-[4-oxo-2-((E)-styryl)-1,3,8-triaza-spiro[4.5]dec-1-ene-8-sulfonyl]-ethyl}-benzamide] the “cAMP production activity (%)” value was 63%.
